PubChem BioAssay (NCI)
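96-well plates; 48 h exposure; 5 concentrations. Endpoints by linear interpolation between flanking doses. Not reached: highest tested concentration assigned. GI50 is the concentration that inhibits growth by half. TGI is the concentration that stops growth completely.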

Legend:
Assay in all cases: NCI tumour cell line growth inhibition, 48 h
K-562 leukemia = system: K-562 leukemia
NCI/ADR-RES ovarian = system: NCI/ADR-RES ovarian
U251 CNS = system: U251 CNS
SK-OV-3 ovarian = system: SK-OV-3 ovarian
BT-549 breast = system: BT-549 breast
HOP-92 NSCLC = system: HOP-92 NSCLC
SK-MEL-28 melanoma = system: SK-MEL-28 melanoma
OVCAR-3 ovarian = system: OVCAR-3 ovarian
SK-MEL-5 melanoma = system: SK-MEL-5 melanoma
UO-31 renal = system: UO-31 renal
HL-60(TB) leukemia = system: HL-60(TB) leukemia
T-47D breast = system: T-47D breast
PC-3 prostate = system: PC-3 prostate
HOP-62 NSCLC = system: HOP-62 NSCLC
HCT-15 colon = system: HCT-15 colon
DU-145 prostate = system: DU-145 prostate
SF-268 CNS = system: SF-268 CNS
ACHN renal = system: ACHN renal
RXF 393 renal = system: RXF 393 renal
A498 renal = system: A498 renal
RPMI-8226 leukemia = system: RPMI-8226 leukemia
NCI-H23 lung = system: NCI-H23 lung
MDA-MB-435 = system: MDA-MB-435
UACC-62 melanoma = system: UACC-62 melanoma
TK-10 renal = system: TK-10 renal
LOX IMVI melanoma = system: LOX IMVI melanoma
CCRF-CEM leukemia = system: CCRF-CEM leukemia
786-0 renal = system: 786-0 renal
HCT-116 colon = system: HCT-116 colon
SF-295 CNS = system: SF-295 CNS
MDA-MB-231 breast = system: MDA-MB-231 breast
SW-620 colon = system: SW-620 colon
OVCAR-4 ovarian = system: OVCAR-4 ovarian
SN12C renal = system: SN12C renal
MCF7 breast = system: MCF7 breast
COLO 205 colon = system: COLO 205 colon
EKVX NSCLC = system: EKVX NSCLC
OVCAR-8 ovarian = system: OVCAR-8 ovarian
MALME-3M melanoma = system: MALME-3M melanoma
SNB-75 CNS = system: SNB-75 CNS
SF-539 CNS = system: SF-539 CNS
IGROV1 ovarian = system: IGROV1 ovarian
NCI-H226 lung = system: NCI-H226 lung
HCC-2998 colon = system: HCC-2998 colon
HS 578T breast = system: HS 578T breast
UACC-257 melanoma = system: UACC-257 melanoma
SR leukemia = system: SR leukemia
A549 NSCLC = system: A549 NSCLC
HT29 colon = system: HT29 colon
NCI-H522 lung = system: NCI-H522 lung
NCI-H460 lung = system: NCI-H460 lung
OVCAR-5 ovarian = system: OVCAR-5 ovarian
M14 melanoma = system: M14 melanoma
SNB-19 CNS = system: SNB-19 CNS
MOLT-4 leukemia = system: MOLT-4 leukemia
KM12 colon = system: KM12 colon
CAKI-1 renal = system: CAKI-1 renal
SK-MEL-2 melanoma = system: SK-MEL-2 melanoma

Compound: CC/C(=C(\c1ccc(Cl)cc1)c1ccc(OCCN2CCCCC2)cc1)c1ccc(O)cc1
- GI50 (K-562 leukemia): 1.6 µM
- TGI (K-562 leukemia): 4.62 µM
- GI50 (NCI/ADR-RES ovarian): 1.75 µM
- TGI (NCI/ADR-RES ovarian): 3.8 µM
- GI50 (U251 CNS): 1.6 µM
- TGI (U251 CNS): 3.16 µM
- GI50 (SK-OV-3 ovarian): 2.01 µM
- TGI (SK-OV-3 ovarian): 4.88 µM
- GI50 (BT-549 breast): 2.06 µM
- TGI (BT-549 breast): 4.2 µM
- GI50 (HOP-92 NSCLC): 1.5 µM
- TGI (HOP-92 NSCLC): 3.2 µM
- GI50 (SK-MEL-28 melanoma): 1.77 µM
- TGI (SK-MEL-28 melanoma): 3.33 µM
- GI50 (OVCAR-3 ovarian): 1.91 µM
- TGI (OVCAR-3 ovarian): 3.63 µM
- GI50 (SK-MEL-5 melanoma): 1.68 µM
- TGI (SK-MEL-5 melanoma): 3.04 µM
- GI50 (UO-31 renal): 1.37 µM
- TGI (UO-31 renal): 2.66 µM
- GI50 (HL-60(TB) leukemia): 1.91 µM
- TGI (HL-60(TB) leukemia): 4.17 µM
- GI50 (T-47D breast): 1.22 µM
- TGI (T-47D breast): 3.83 µM
- GI50 (PC-3 prostate): 1.66 µM
- TGI (PC-3 prostate): 3.36 µM
- GI50 (HOP-62 NSCLC): 1.77 µM
- TGI (HOP-62 NSCLC): 3.48 µM
- GI50 (HCT-15 colon): 1.61 µM
- TGI (HCT-15 colon): 3.15 µM
- GI50 (DU-145 prostate): 1.87 µM
- TGI (DU-145 prostate): 3.58 µM
- GI50 (SF-268 CNS): 1.75 µM
- TGI (SF-268 CNS): 3.8 µM
- GI50 (ACHN renal): 1.7 µM
- TGI (ACHN renal): 3.08 µM
- GI50 (RXF 393 renal): 1.45 µM
- TGI (RXF 393 renal): 2.92 µM
- GI50 (A498 renal): 3.31 µM
- TGI (A498 renal): 16.5 µM
- GI50 (RPMI-8226 leukemia): 1.86 µM
- TGI (RPMI-8226 leukemia): 4.1 µM
- GI50 (NCI-H23 lung): 1.88 µM
- TGI (NCI-H23 lung): 3.84 µM
- GI50 (MDA-MB-435): 1.72 µM
- TGI (MDA-MB-435): 3.2 µM
- GI50 (UACC-62 melanoma): 1.71 µM
- TGI (UACC-62 melanoma): 3.25 µM
- GI50 (TK-10 renal): 1.96 µM
- TGI (TK-10 renal): 4.58 µM
- GI50 (LOX IMVI melanoma): 1.67 µM
- TGI (LOX IMVI melanoma): 3.03 µM
- GI50 (CCRF-CEM leukemia): 1.91 µM
- TGI (CCRF-CEM leukemia): 4.93 µM
- GI50 (786-0 renal): 1.81 µM
- TGI (786-0 renal): 3.43 µM
- GI50 (HCT-116 colon): 1.98 µM
- TGI (HCT-116 colon): 4.26 µM
- GI50 (SF-295 CNS): 1.72 µM
- TGI (SF-295 CNS): 3.13 µM
- GI50 (MDA-MB-231 breast): 1.81 µM
- TGI (MDA-MB-231 breast): 3.29 µM
- GI50 (SW-620 colon): 1.75 µM
- TGI (SW-620 colon): 3.42 µM
- GI50 (OVCAR-4 ovarian): 1.97 µM
- TGI (OVCAR-4 ovarian): 4.35 µM
- GI50 (SN12C renal): 1.69 µM
- TGI (SN12C renal): 3.23 µM
- GI50 (MCF7 breast): 0.0622 µM
- TGI (MCF7 breast): 2.63 µM
- GI50 (COLO 205 colon): 1.82 µM
- TGI (COLO 205 colon): 3.86 µM
- GI50 (EKVX NSCLC): 1.91 µM
- TGI (EKVX NSCLC): 4.35 µM
- GI50 (OVCAR-8 ovarian): 2.11 µM
- TGI (OVCAR-8 ovarian): 5.2 µM
- GI50 (MALME-3M melanoma): 1.75 µM
- TGI (MALME-3M melanoma): 3.33 µM
- GI50 (SNB-75 CNS): 1.49 µM
- TGI (SNB-75 CNS): 3.64 µM
- GI50 (SF-539 CNS): 1.7 µM
- TGI (SF-539 CNS): 3.11 µM
- GI50 (IGROV1 ovarian): 1.91 µM
- TGI (IGROV1 ovarian): 3.94 µM
- GI50 (NCI-H226 lung): 1.85 µM
- TGI (NCI-H226 lung): 4.34 µM
- GI50 (HCC-2998 colon): 1.85 µM
- TGI (HCC-2998 colon): 3.46 µM
- GI50 (HS 578T breast): 1.78 µM
- TGI (HS 578T breast): 4.51 µM
- GI50 (UACC-257 melanoma): 1.83 µM
- TGI (UACC-257 melanoma): 3.94 µM
- GI50 (SR leukemia): 1.9 µM
- TGI (SR leukemia): 4.51 µM
- GI50 (A549 NSCLC): 1.81 µM
- TGI (A549 NSCLC): 3.7 µM
- GI50 (HT29 colon): 2.19 µM
- TGI (HT29 colon): 5.09 µM
- GI50 (NCI-H522 lung): 2.01 µM
- TGI (NCI-H522 lung): 4.44 µM
- GI50 (NCI-H460 lung): 1.82 µM
- TGI (NCI-H460 lung): 3.37 µM
- GI50 (OVCAR-5 ovarian): 1.86 µM
- TGI (OVCAR-5 ovarian): 4.04 µM
- GI50 (M14 melanoma): 1.88 µM
- TGI (M14 melanoma): 3.77 µM
- GI50 (SNB-19 CNS): 1.9 µM
- TGI (SNB-19 CNS): 3.54 µM
- GI50 (MOLT-4 leukemia): 1.76 µM
- TGI (MOLT-4 leukemia): 4.43 µM
- GI50 (KM12 colon): 1.9 µM
- TGI (KM12 colon): 3.74 µM

Compound: O=C(CSCC(=O)N/N=C\c1cc(Cl)cc(Cl)c1O)N/N=C\c1cc(Cl)cc(Cl)c1O
- TGI (K-562 leukemia): 12.7 µM
- TGI (NCI/ADR-RES ovarian): 12.5 µM
- TGI (U251 CNS): 6.61 µM
- TGI (CAKI-1 renal): 15 µM
- TGI (SK-OV-3 ovarian): 24 µM
- TGI (BT-549 breast): 25.8 µM
- TGI (HOP-92 NSCLC): 31.4 µM
- TGI (SK-MEL-28 melanoma): 18.9 µM
- TGI (OVCAR-3 ovarian): 6.83 µM
- TGI (SK-MEL-5 melanoma): 16.3 µM
- TGI (UO-31 renal): 17.5 µM
- TGI (HL-60(TB) leukemia): 13.9 µM
- TGI (T-47D breast): 27.9 µM
- TGI (PC-3 prostate): 18.5 µM
- TGI (HOP-62 NSCLC): 18.3 µM
- TGI (HCT-15 colon): 12.9 µM
- TGI (DU-145 prostate): 21.1 µM
- TGI (SF-268 CNS): 15.7 µM
- TGI (ACHN renal): 11.7 µM
- TGI (RXF 393 renal): > 100 µM
- TGI (NCI-H23 lung): 22.9 µM
- TGI (MDA-MB-435): 21.1 µM
- TGI (UACC-62 melanoma): 13.7 µM
- TGI (TK-10 renal): 21 µM
- TGI (LOX IMVI melanoma): 10.8 µM
- TGI (CCRF-CEM leukemia): 0.748 µM
- TGI (786-0 renal): 20 µM
- TGI (HCT-116 colon): 12.8 µM
- TGI (SF-295 CNS): 21 µM
- TGI (MDA-MB-231 breast): 13.5 µM
- TGI (SW-620 colon): 16.2 µM
- TGI (SK-MEL-2 melanoma): 12.9 µM
- TGI (OVCAR-4 ovarian): 19.1 µM
- TGI (SN12C renal): 16.2 µM
- TGI (MCF7 breast): 34.5 µM
- TGI (COLO 205 colon): 20.4 µM
- TGI (EKVX NSCLC): 28.3 µM
- TGI (OVCAR-8 ovarian): 14.3 µM
- TGI (MALME-3M melanoma): 8.02 µM
- TGI (SNB-75 CNS): 36 µM
- TGI (SF-539 CNS): 11.1 µM
- TGI (IGROV1 ovarian): 15.3 µM
- TGI (NCI-H226 lung): 15 µM
- TGI (HS 578T breast): 20.1 µM
- TGI (UACC-257 melanoma): 18.2 µM
- TGI (SR leukemia): 11 µM
- TGI (A549 NSCLC): 32.8 µM
- TGI (HT29 colon): 22.3 µM
- TGI (NCI-H522 lung): 6.59 µM
- TGI (NCI-H460 lung): 42.8 µM
- TGI (OVCAR-5 ovarian): 22.9 µM
- TGI (M14 melanoma): 17.5 µM
- TGI (SNB-19 CNS): > 100 µM
- TGI (MOLT-4 leukemia): 8.81 µM
- TGI (KM12 colon): 19.7 µM
